“And” between values parts separate entries of the source, which are not always exact repeats. Equal values may be shown once. Read-outs that look alike come from different tables or passages of the source.
Experiments:
EGFR-L858R = EGFR-L858R (Homo sapiens, UniProt P00533, L858R); experiment: HTRF KinEASE-TK activity-based assay, EGFR-L858R
[1] = tested on: HCC827 cells (EGFR-delE746_A750); experiment: CellTiter-Glo viability assay, HCC827; assay type: cell-based; conditions: Homo sapiens, read-out: EGFR CTG EC50 HCC827;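 also: luminescence from ATP content as a measure of metabolically active cells, in RPMI with 10% FBS, compound added as serial dilutions after 24 h of preculture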
Protocol: (§7) A431, HCC827, H1975, A549 and H358 cells were obtained from the American Type Culture Collection (ATCC). A431 cells were cultured in DMEM high glucose media (Life Technologies, Germany), and HCC827, H1975, A549 as well as H358 cells were cultured in RPMI media (Life Technologies, Germany), both containing L-Glutamine and were supplemented with 10% FBS (GE Healthcare, Austria) and 1% PenStrep (Life Technologies, Germany) in a humidified incubator at 37 °C and 5% CO2.
(§8) Cells were seeded at cell numbers that assure linearity and optimal signal intensity (150-300 cells/well, 25 µL) and cultured for 24 hours in serum- and antibiotics-containing media in humidified chambers at 37 °C / 5% CO2. The cells were then treated with EGFR inhibitors in serial
(§9) Afterwards viability studies were carried out using CellTiter-Glo Assay (Promega, USA) that is a homogeneous method of determining the number of viable cells in culture. It is based on quantification of ATP, indicating the presence of metabolically active cells. For these studies, CellTiter-Glo reagent was prepared according to the instructions of the kit and diluted 1:1 with the complete growth medium suitable for the corresponding cell line. Thereon, reagent and assay plates were equilibrated at room temperature for 20 min. Equal volumes of the reagent were added to the volume of culture medium present in each well (25 µL). The plates were mixed for 2 minutes on an orbital shaker to induce cell lysis. The microplates were then incubated at room temperature for 20 minutes for stabilization of the luminescent signal. Following incubation the luminescence was recorded on an EnVision microplate reader (Perkin Elmer) using 500 ms integration time. The data was then analyzed using the Quattro Research Software Suite for EC50-determination. As quality control the Z’-factor was calculated from 16 positive and negative control values. Only assay results showing a Z’-factor ≥0.5 were used for further analysis. All data points were measured in duplicates for each plate and were replicated in at least two plates.

H358 cells (KRAS mutant) = experiment: CellTiter-Glo viability assay, H358; assay type: cell-based; conditions: Homo sapiens, read-out: KRAS CTG EC50 H358;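 also: viable cell number estimated from ATP-dependent luminescence following exposure to serially diluted inhibitor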
EGFR-wt = EGFR-wt (Homo sapiens, UniProt P00533); experiment: HTRF KinEASE-TK activity-based assay, EGFR-wt; conditions: EGFR HTRF IC50 wt, ATP at Km (9.5 µM), 30 min preincubation; mean ± SD of three independent measurements in duplicates
A549 cells (KRAS mutant) = experiment: CellTiter-Glo viability assay, A549; conditions: Homo sapiens, A549, 96 h, read-out: KRAS CTG EC50 A549
[2] = Microsomal stability (phase I), mouse; assay type: in vitro ADME; conditions: mouse liver microsomes, up to 60 minutes, 37 °C
Protocol: (§1) Microsomal stability (phase I) assay.
(§2) Metabolic stability under oxidative conditions was measured in liver microsomes from different
(§3) time up to 50 minutes (HLM) or 60 minutes (MLM) at 37 °C. Based on the compound half-life t1/2,
(§4) the in vitro intrinsic clearance CLint was calculated. […]

EGFR-L858R/T790M = EGFR-L858R/T790M (Homo sapiens, UniProt P00533, L858R/T790M); experiment: HTRF KinEASE-TK activity-based assay, EGFR-L858R/T790M; conditions: EGFR HTRF IC50 L858R/T790M, ATP at Km (4 µM), 30 min preincubation; mean ± SD of three independent measurements in duplicates
[3] = tested on: H1975 cells (EGFR-L858R/T790M); experiment: CellTiter-Glo viability assay, H1975
Protocol: as §7, §8, §9

[4] = tested on: A431 cells (EGFR wild type); experiment: CellTiter-Glo viability assay, A431; conditions: Homo sapiens, A-431, 96 h
Protocol: as §7, §8, §9

Plasma stability, mouse = assay type: in vitro ADME; conditions: 5 µM, 1 h, 37 °C
[5] = PAMPA (parallel artificial membrane permeability assay); assay type: in vitro ADME; conditions: pH 7.4, 500 µM, 16 hours
Protocol: masses and 0.02 Da for fragment ions. FDR was adjusted to 1% on peptide spectrum match […]
as §1
Metabolic stability under oxidative conditions was measured in liver microsomes from different species by LC/MS-based measuring of depletion of compound at a concentration of 3 µM over time up to 50 minutes (HLM) or 60 minutes (MLM) at 37 °C. Based on the compound half-life t1/2, the in vitro intrinsic clearance CLint was calculated.
Plasma stability was measured by LC/MS-based determination of the percentage of remaining compounds at a concentration of 5 µM after incubation in plasma obtained from different species […]
Assessment of plasma protein binding was measured by equilibrium dialysis by incubating plasma with the compound of interest at a concentration of 5 µM for 6 h at 37 °C followed by LC/MS-based determination of final compound concentrations.
PAMPA (Parallel artificial membrane permeability assay). […]
temperature in a wet chamber, the optical density of the solution in the receiver well was measured between 250 and 500 nm in intervals of 10 nm. The percent flux was calculated from […]

[6] = Plasma protein binding, mouse; assay type: in vitro ADME; conditions: equilibrium dialysis, 37 °C
Protocol: (§5) Assessment of plasma protein binding was measured by equilibrium dialysis by incubating plasma
(§6) based determination of final compound concentrations. […]

Plasma stability, human = assay type: in vitro ADME; conditions: 5 µM, 1 h, 37 °C
[7] = Plasma protein binding, human; assay type: in vitro ADME; conditions: equilibrium dialysis, 37 °C
Protocol: as §5, §6

Caco-2 assay = assay type: in vitro ADME; conditions: human, Caco-2, 5 μM, pH 7.4, 2 hours; for Papp A→B at 2 h, 5 μM: apical to basolateral, read-out: Caco-2: Papp AB; for Papp B→A at 2 h, 5 μM: basolateral to apical, read-out: Caco-2: Papp BA
Protocol: For Caco-2 cell assay, a 10 mM DMSO stock of the compound was diluted to a final concentration of 5 μM in HBSS buffer pH 7.4 and incubated for 2 hours at 37 °C and 5% CO2 on a monolayer of Caco-2 cells (ATCC) that had been grown on a transwell membrane (Millipore, Schwalbach, Germany) for 21 days. The compound concentration was measured in the receiver as well as the donor well. Apparent permeability (Papp) from either the apical to basolateral direction or vice versa […]
is the donor drug concentration at t = 0, and dQ/dt is the amount of drug transported within the given time period of 2 hours. […]

[8] = Microsomal stability (phase I), human; assay type: in vitro ADME; conditions: human liver microsomes, up to 50 minutes, 37 °C
Protocol: as §1, §2, §3, §4

[9] = HCC827, 96 hours, CellTiter-Glo
[10] = NCI-H358, H358, 96 hours, CellTiter-Glo
[11] = Homo sapiens, NCI-H1975, 96 h, read-out: EGFR CTG EC50 H1975, H1975, 96 hours, CellTiter-Glo
[12] = read-out: EGFR CTG EC50 A431, A431, 96 hours, CellTiter-Glo

Chain of EGFR-wt (P00533 25-1210): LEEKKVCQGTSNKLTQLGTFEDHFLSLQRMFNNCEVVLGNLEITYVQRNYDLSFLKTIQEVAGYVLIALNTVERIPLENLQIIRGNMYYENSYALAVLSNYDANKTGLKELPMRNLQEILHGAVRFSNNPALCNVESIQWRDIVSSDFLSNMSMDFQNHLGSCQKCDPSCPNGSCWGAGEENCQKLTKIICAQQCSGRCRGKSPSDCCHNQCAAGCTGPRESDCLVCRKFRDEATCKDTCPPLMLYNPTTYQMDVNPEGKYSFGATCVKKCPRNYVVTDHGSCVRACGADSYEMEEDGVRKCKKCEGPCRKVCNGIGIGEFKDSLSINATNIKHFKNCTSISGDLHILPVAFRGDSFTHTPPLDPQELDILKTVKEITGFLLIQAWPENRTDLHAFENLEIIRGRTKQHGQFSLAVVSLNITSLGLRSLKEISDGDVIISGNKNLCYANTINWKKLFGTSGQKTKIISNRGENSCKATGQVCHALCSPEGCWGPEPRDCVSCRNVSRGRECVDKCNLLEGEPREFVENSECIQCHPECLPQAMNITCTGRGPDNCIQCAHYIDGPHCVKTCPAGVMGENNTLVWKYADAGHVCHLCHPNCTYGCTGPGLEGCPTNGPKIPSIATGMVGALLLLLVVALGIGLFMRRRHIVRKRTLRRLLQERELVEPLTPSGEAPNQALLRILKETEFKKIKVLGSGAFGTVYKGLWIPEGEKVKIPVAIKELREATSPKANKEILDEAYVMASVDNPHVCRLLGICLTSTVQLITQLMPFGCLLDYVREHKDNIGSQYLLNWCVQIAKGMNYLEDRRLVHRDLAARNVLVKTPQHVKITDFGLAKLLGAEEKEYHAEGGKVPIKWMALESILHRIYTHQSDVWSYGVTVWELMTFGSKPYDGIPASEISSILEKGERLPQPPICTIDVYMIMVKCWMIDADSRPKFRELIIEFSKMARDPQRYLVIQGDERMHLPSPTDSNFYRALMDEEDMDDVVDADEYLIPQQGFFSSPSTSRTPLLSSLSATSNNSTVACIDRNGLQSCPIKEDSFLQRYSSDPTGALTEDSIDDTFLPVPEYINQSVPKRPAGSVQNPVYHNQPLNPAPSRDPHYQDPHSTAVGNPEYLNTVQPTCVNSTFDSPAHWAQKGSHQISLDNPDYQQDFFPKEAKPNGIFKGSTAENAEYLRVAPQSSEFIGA
Chain of EGFR-L858R (P00533 25-1210 L858R): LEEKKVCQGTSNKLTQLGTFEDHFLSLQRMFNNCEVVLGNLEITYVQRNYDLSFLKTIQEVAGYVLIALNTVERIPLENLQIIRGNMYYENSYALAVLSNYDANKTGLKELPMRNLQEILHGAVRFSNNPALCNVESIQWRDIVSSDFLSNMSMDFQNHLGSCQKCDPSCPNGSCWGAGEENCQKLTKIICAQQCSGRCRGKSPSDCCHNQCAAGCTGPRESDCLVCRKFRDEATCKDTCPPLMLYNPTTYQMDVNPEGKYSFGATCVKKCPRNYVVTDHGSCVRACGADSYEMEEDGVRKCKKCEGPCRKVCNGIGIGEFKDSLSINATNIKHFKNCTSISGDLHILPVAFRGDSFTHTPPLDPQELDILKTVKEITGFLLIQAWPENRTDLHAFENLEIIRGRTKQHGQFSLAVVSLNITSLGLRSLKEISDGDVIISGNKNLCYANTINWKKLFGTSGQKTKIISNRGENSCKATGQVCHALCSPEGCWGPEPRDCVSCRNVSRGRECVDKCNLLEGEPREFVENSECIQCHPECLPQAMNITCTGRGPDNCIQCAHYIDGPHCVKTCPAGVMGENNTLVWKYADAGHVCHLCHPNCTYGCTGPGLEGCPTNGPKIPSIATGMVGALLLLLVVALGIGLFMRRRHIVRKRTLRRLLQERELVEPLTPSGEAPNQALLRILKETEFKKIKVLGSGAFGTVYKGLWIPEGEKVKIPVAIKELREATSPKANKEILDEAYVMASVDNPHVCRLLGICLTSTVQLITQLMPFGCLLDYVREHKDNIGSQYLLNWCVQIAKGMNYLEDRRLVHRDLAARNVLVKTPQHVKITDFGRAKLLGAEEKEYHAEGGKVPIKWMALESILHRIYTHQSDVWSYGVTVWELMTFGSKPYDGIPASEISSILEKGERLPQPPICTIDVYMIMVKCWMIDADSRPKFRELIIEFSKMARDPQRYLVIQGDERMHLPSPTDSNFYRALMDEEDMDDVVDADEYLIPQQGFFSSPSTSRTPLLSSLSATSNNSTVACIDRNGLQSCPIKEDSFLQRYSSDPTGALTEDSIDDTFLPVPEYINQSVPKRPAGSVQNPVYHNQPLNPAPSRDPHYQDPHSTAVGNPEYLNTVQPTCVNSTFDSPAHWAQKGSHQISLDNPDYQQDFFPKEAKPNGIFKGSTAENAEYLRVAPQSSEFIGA
Chain of EGFR-L858R/T790M (P00533 25-1210 T790M/L858R): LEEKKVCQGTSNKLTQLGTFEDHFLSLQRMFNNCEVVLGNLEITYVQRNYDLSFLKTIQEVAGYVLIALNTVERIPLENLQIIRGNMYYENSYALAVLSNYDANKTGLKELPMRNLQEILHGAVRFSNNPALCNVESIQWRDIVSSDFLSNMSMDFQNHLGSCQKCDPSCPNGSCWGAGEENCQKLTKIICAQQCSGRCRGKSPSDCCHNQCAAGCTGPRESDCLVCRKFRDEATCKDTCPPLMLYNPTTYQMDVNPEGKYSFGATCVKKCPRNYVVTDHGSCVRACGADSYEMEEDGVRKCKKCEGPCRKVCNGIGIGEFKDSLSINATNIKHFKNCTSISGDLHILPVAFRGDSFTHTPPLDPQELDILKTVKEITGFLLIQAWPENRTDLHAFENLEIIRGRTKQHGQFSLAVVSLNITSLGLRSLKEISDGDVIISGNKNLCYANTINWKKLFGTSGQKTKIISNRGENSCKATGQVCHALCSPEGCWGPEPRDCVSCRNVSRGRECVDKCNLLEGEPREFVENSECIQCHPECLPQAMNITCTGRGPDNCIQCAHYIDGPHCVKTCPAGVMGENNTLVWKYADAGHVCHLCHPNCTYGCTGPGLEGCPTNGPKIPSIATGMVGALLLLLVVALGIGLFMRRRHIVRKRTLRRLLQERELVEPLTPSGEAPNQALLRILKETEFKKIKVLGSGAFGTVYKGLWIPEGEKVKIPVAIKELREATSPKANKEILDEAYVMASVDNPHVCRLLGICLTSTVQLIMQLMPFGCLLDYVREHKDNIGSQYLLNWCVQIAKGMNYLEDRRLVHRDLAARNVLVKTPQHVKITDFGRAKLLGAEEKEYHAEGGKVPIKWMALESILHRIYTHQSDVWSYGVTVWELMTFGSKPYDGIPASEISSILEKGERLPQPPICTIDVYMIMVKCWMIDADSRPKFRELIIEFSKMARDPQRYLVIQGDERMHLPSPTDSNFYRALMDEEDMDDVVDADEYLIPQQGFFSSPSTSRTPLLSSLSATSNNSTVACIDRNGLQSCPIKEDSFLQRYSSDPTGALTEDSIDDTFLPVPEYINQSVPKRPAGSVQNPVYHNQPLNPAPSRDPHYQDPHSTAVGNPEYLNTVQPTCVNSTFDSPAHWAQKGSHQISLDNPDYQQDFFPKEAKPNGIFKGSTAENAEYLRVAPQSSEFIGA

For `C=CC(=O)Nc1cccc(-c2c(-c3ccc(N4CCN(C)CC4)cc3)[nH]c3ncn(C4CCCCC4)c(=O)c23)c1` [Compound 29j], the IC50 (EGFR-L858R) was 0.2 ± 0.1 nM, the EC50 [1, 9] was less than 14 nM and the EC50 (H358 cells (KRAS mutant); [10]) was 6270 ± 1270 nM. For the same compound, the IC50 (EGFR-wt) was 0.4 ± 0.1 nM, the EC50 (A549 cells (KRAS mutant)) was 6050 ± 4600 nM and the microsomal CLint at 3 µM [2] was 30 µL/min/mg. For the same compound, the IC50 (EGFR-L858R/T790M) was 0.4 ± 0.1 nM, the EC50 [3, 11] was 77 ± 15 nM and the EC50 [4, 12] was 1120 ± 656 nM.
`C=CC(=O)Nc1cccc(-c2c(-c3ccc(N4CCN(C)CC4)cc3)[nH]c3ncnc(OCCCC)c23)c1` [Compound 19d] gave an IC50 (EGFR-L858R) of less than 0.1 nM, an EC50 [1, 9] of less than 14 nM and an EC50 (H358 cells (KRAS mutant); [10]) of 1640 ± 813 nM. It also gave an IC50 (EGFR-wt) of less than 0.1 nM, an EC50 (A549 cells (KRAS mutant)) of 1130 ± 176 nM and a microsomal CLint at 3 µM [2] of 50 µL/min/mg. For the same compound, the IC50 (EGFR-L858R/T790M) was less than 0.1 nM, the EC50 [3, 11] was 64 ± 8 nM and the EC50 [4, 12] was 1530 ± 273 nM.
Compound `C=CC(=O)Nc1cc(Nc2nccc(-c3cn(C)c4ccccc34)n2)c(OC)cc1N(C)CCN(C)C` [Osimertinib, osimertinib, reference compound] has a Plasma stability (Plasma stability, mouse) of 75 %remain, an EC50 ([1]; HCC827, 96 h) of less than 14 nM and an EC50 (H358 cells (KRAS mutant); NCI-H358, 96 h) of 2840 ± 362 nM. It also gave a PAMPA flux [5] of 88%, a fraction unbound at 6 h, 5 µM [6] of 0.024 and an EC50 (A549 cells (KRAS mutant)) of 1830 ± 259 nM. The Plasma stability (Plasma stability, human) was 78 %remain, the microsomal CLint at 3 µM [2] was 60 µL/min/mg and the fraction unbound at 6 h, 5 µM [7] was 0.029. For the same compound, the Papp A→B at 2 h, 5 μM (Caco-2 assay) was 5 ×10⁻⁶ cm/s, the Papp B→A at 2 h, 5 μM (Caco-2 assay) was 6.8 ×10⁻⁶ cm/s and the microsomal CLint at 3 µM [8] was 4.1 µL/min/mg. For the same compound, the EC50 ([3]; Homo sapiens, NCI-H1975, 96 h, read-out: EGFR CTG EC50 H1975) was 16 ± 5 nM and the EC50 ([4]; read-out: EGFR CTG EC50 A431) was […].
`C=CC(=O)Nc1cccc(-c2c(-c3ccc(N4CCN(C)CC4)cc3)[nH]c3ncn(CC)c(=O)c23)c1` [Compound 29b] showed an IC50 (EGFR-L858R) of 0.2 ± 0.1 nM, an EC50 [1, 9] of 15 ± 1 nM and an EC50 (H358 cells (KRAS mutant); [10]) of 3470 ± 2010 nM. The IC50 (EGFR-wt) was 0.4 ± 0.2 nM, the EC50 (A549 cells (KRAS mutant)) was 4300 ± 1250 nM and the microsomal CLint at 3 µM [2] was 4 µL/min/mg. For the same compound, the IC50 (EGFR-L858R/T790M) was 0.5 nM, the EC50 [3, 11] was less than 200 nM and the EC50 ([3]; read-out: EGFR CTG EC50 H1975, H1975, 96 hours, CellTiter-Glo) was 144 ± 41 nM. For the same compound, the EC50 [4, 12] was 739 ± 287 nM.
Compound `C=CC(=O)Nc1cccc(Oc2nc(Nc3ccc(N4CCN(C)CC4)cc3OC)ncc2Cl)c1` [WZ4002, reference compound] has a Plasma stability (Plasma stability, mouse) of 78 %remain, an EC50 [1, 9] of 20 ± 6 nM and an EC50 (H358 cells (KRAS mutant); [10]) of 4390 ± 512 nM. The fraction unbound at 6 h, 5 µM [6] was 0.019, the EC50 (A549 cells (KRAS mutant)) was 4000 ± 545 nM and the Plasma stability (Plasma stability, human) was 86 %remain. The microsomal CLint at 3 µM [2] was 66 µL/min/mg, the fraction unbound at 6 h, 5 µM [7] was 0.008 and the Papp A→B at 2 h, 5 μM (Caco-2 assay) was 4.9 ×10⁻⁶ cm/s. It also gave a Papp B→A at 2 h, 5 μM (Caco-2 assay) of 11.7 ×10⁻⁶ cm/s, a microsomal CLint at 3 µM [8] of 11 µL/min/mg and an EC50 [3, 11] of 97 ± 37 nM. It also gave an EC50 [4, 12] of 2140 ± 439 nM.
`COc1ncnc2[nH]c(-c3ccc(C)cc3)c(-c3cccc(NC(=O)C=CCN(C)C)c3)c12` [Compound 10b] gave an IC50 (EGFR-L858R) of 34 ± 11 nM, an EC50 [1, 9] of 282 ± 29 nM and an EC50 (H358 cells (KRAS mutant); [10]) of 10700 ± 3520 nM. It also gave an IC50 (EGFR-wt) of 60 ± 18 nM, an EC50 (A549 cells (KRAS mutant)) of 7060 ± 3230 nM and a microsomal CLint at 3 µM [2] of 26 µL/min/mg. It also gave an IC50 (EGFR-L858R/T790M) of 26 ± 8 nM, an EC50 [3, 11] of 980 ± 136 nM and an EC50 [4, 12] of 2430 ± 991 nM.
Work on `C=CC(=O)Nc1cccc(-c2c(-c3ccc(C)cc3)[nH]c3ncnc(OC)c23)c1` [Compound 10a] yielded an IC50 (EGFR-L858R) of 93 ± 54 nM, an EC50 [1, 9] of 151 ± 10 nM and an EC50 (H358 cells (KRAS mutant); [10]) of 14200 ± 678 nM. For the same compound, the IC50 (EGFR-wt) was 200 ± 148 nM, the EC50 (A549 cells (KRAS mutant)) was 10200 ± 504 nM and the microsomal CLint at 3 µM [2] was 118 µL/min/mg. For the same compound, the IC50 (EGFR-L858R/T790M) was < 200 nM and 175 nM, the EC50 [3, 11] was 2040 ± 88 nM and the EC50 ([3]; Homo sapiens, NCI-H1975, read-out: EC50 / potency in H1975 cells, H1975, rounded value in running text) was roughly 2000 nM. The EC50 [4, 12] was 9860 ± 4250 nM.
`C=CC(=O)Nc1cccc(-c2c(-c3ccc(N4CCN(C)CC4)cc3)[nH]c3ncn(C4CCCC4)c(=O)c23)c1` [Compound 29i] showed an IC50 (EGFR-L858R) of less than 0.1 nM, an EC50 [1, 9] of less than 14 nM and an EC50 (H358 cells (KRAS mutant); [10]) of 1940 ± 45 nM. For the same compound, the IC50 (EGFR-wt) was 0.1 nM, the EC50 (A549 cells (KRAS mutant)) was 2130 ± 990 nM and the microsomal CLint at 3 µM [2] was 84 µL/min/mg. For the same compound, the IC50 (EGFR-L858R/T790M) was > 1 nM and 1.2 nM, the EC50 [3, 11] was 263 ± 46 nM and the EC50 [4, 12] was 502 ± 166 nM.

— publication PMC6886544
